Reference: the supplement of paper PMC6045584

Tests used:
Experiment in all cases: area under dose-response curve of surviving fraction (unscaled, Aref=0) (surviving fraction x log10(nM)); higher = more resistant
Conditions in all cases: exposure time: 5 days; dose range 0.5-1000 nM
[1] = compound: C[C@]12CC[C@H](O)CC1=CC[C@@H]1[C@@H]2CC[C@]2(C)C(c3cccnc3)=CC[C@@H]12 [ABIRATERONE]
In short: (§1)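 Tumour cell lines in 384-well plates were exposed to eight inhibitor concentrations, from 0.5 to 1000 nM, for five days, and viability was read by CellTiter-Glo luminescence in three screens per line. Signals were normalised to DMSO-only wells, and 3-parameter logistic regression in the drc R package fitted dose-response survival curves to the surviving fractions. Area under the curve is given as the unscaled activity area. That area is taken over log10 dose with Aref = 0.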

[2] = compound: CN1CCN(c2nc(C3=C(c4c[nH]c5ccccc45)C(=O)NC3=O)c3ccccc3n2)CC1 [SOTRASTAURIN/AEB071]
In short: as §1

[3] = compound: C[C@@H](Oc1cc(-c2cnn(C3CCNCC3)c2)cnc1N)c1c(Cl)ccc(F)c1Cl [CRIZOTINIB]
In short: as §1

[4] = compound: Cn1nnc2c(C(N)=O)ncn2c1=O [TEMOZOLOMIDE]
In short: as §1

[5] = compound: NS(=O)(=O)OC[C@@H]1C[C@@H](n2ccc3c(N[C@H]4CCc5ccccc54)ncnc32)C[C@@H]1O [MLN-4924]
In short: as §1

[6] = compound: CNC(=O)c1cc(Oc2ccc(NC(=O)Nc3ccc(Cl)c(C(F)(F)F)c3)cc2)ccn1 [SORAFENIB]
In short: as §1

[7] = compound: CNCc1ccc(-c2[nH]c3cc(F)cc4c3c2CCNC4=O)cc1
In short: as §1

[8] = compound: C[C@@H](Oc1cc(-c2cnn(C3CCNCC3)c2)cnc1N)c1c(Cl)ccc(F)c1Cl
In short: as §1

[9] = compound: O=C(c1cc(Cc2n[nH]c(=O)c3ccccc23)ccc1F)N1CCN(C(=O)C2CC2)CC1 [OLAPARIB]
In short: as §1

[10] = compound: COc1cc2ncnc(Nc3ccc(F)c(Cl)c3)c2cc1NC(=O)/C=C/CN1CCCCC1
In short: as §1

[11] = compound: Cc1nc(Nc2ncc(C(=O)Nc3c(C)cccc3Cl)s2)cc(N2CCN(CCO)CC2)n1 [DASATINIB]
In short: as §1

[12] = compound: CCn1c(C(=O)N(C2CC2)C2CC2)cc2c3c(ncn3C)c(Nc3cc(C)n(C)n3)nc21
In short: as §1

[13] = compound: Oc1nc(-c2ccc(C(F)(F)F)cc2)nc2c1CSCC2 [XAV-939]
In short: as §1

[14] = compound: COc1cc2c(Oc3ccc(NC(=O)C4(C(=O)Nc5ccc(F)cc5)CC4)cc3F)ccnc2cc1OCCCN1CCOCC1 [FORETINIB]
In short: as §1

Test System	area under dose-response curve [1]	area under dose-response curve [2]	area under dose-response curve [3]	area under dose-response curve [4]	area under dose-response curve [5]	area under dose-response curve [6]	area under dose-response curve [7]	area under dose-response curve [8]	area under dose-response curve [9]	area under dose-response curve [10]	area under dose-response curve [11]	area under dose-response curve [12]	area under dose-response curve [13]	area under dose-response curve [14]
HOS BONE	3.5	3.38	3.13	3.42	2.11	3.42	3.35	3.05	3.37	3.27	2.29	3.32	3.4	3.06
CAL51 BREAST	3.32	3.16	2.87	3.41	2.56	3.36	2.78	2.77	2.99	3.29	1.95	3.3	3.24	2.75
KPD BONE	3.4	3.41	3.08	3.35	2.61	3.2	3.18	2.95	3.12	3.13	2.1	3.28	3.17	3.08
MDAMB361 BREAST	–	2.21	2.86	3.06	2.48	2.79	2.1	2.88	2.26	2.58	2.45	2.83	3.04	2.98
MCF7 BREAST	3.3	3.11	3.04	3.08	2.24	2.97	3.04	2.71	3.07	3.16	2.56	2.83	3.19	2.96
CAL120 BREAST	3.35	3.28	3.24	3.22	2.22	3.19	3.19	2.89	2.89	3.14	1.98	3.06	3.24	3.06
JIMT1 BREAST	3.3	3.24	3.18	3.4	3.19	3.34	3.03	3.01	3.01	2.5	1.66	3.27	3.26	3.01
SNU475 LIVER	3.42	3.15	3.26	3.4	3.13	3.6	3.13	2.77	3.11	2.94	1.64	3.18	3.07	3.18
CASKI CERVIX	–	3.1	2.83	3.19	2.18	–	3.04	2.58	2.98	1.19	1.2	3.21	3.25	2.87
OS25HAL BONE	3.44	3.43	3.21	3.52	2.39	3.2	–	3.14	3.36	3.34	2.28	3.23	3.23	2.85
MDAMB436 BREAST	3.11	2.8	3.4	3.32	2.24	3.22	2.37	2.84	2.31	3.06	2.65	2.67	3.05	3.16
LM7 BONE	3.33	3.08	3.05	3.38	2.09	3.39	2.67	2.6	2.84	2.98	1.58	3.31	3.45	3.1
HELA CERVIX	3.73	3.56	3.42	3.6	3.35	3.38	3.62	3.13	3.66	3.73	3.16	3.32	3.57	3.06
S68 BREAST	3.31	3.45	2.72	3.53	2.21	3.49	2.67	2.76	2.85	2.49	1.44	–	3.19	2.65
22RV1 PROSTATE	3.62	3.61	3.17	3.54	2.3	3.42	3.57	3	3.41	–	–	3.4	3.34	3.05
A549 LUNG	3.53	–	3.27	3.43	3.14	3.44	3.56	3.25	3.48	3.32	2.72	3.2	3.48	3.13
SG43 HEADNECK	3.37	3.54	2.8	2.97	–	4.26	3.46	2.88	3.28	1.38	1.64	2.97	2.88	2.45
OSHN BONE	3.67	3.32	3.28	3.58	2.48	3.51	3.21	3.17	3.28	3.52	2.81	3.38	3.53	3.09

Test System	area under dose-response curve [1]	area under dose-response curve [2]	area under dose-response curve [3]	area under dose-response curve [4]	area under dose-response curve [5]	area under dose-response curve [6]	area under dose-response curve [7]	area under dose-response curve [8]	area under dose-response curve [9]	area under dose-response curve [10]	area under dose-response curve [11]	area under dose-response curve [12]	area under dose-response curve [13]	area under dose-response curve [14]
CADOES1 SOFT TISSUE	–	3.21	3.05	3.11	2.57	2.92	2.97	2.94	3.04	3	3.34	3.08	2.98	2.56
LNCAP PROSTATE	2.98	3.71	2.91	3.08	1.35	–	–	2.82	3.27	2.92	2.62	2.93	2.79	2.93
H23 LUNG	3.65	3.58	3.48	3.33	2.48	3.89	3.63	3.24	3.67	1.51	2.14	3.2	2.94	3.19
SUM149 BREAST	3.16	2.96	3.15	3.57	2.38	3.9	2.39	2.99	2.46	2.13	1.49	3.48	2.66	2.82
COLO320DM LARGE INTESTINE	3.36	3.45	3.21	3.45	3.14	3.67	3.27	3.01	3.46	3.2	3.52	3.77	3.19	3.16
U2OS BONE	3.6	3.36	3.06	3.39	2.83	3.5	3.17	2.88	3.26	3.24	2.63	3.44	3.25	3
VCAP PROSTATE	3.72	3.27	3.04	3.44	2.21	3.73	3.23	2.88	3.59	3.12	3.15	3.54	3.13	3.06
MDAMB157 BREAST	3.17	3.23	3.17	3.27	2.69	–	3.13	2.84	3.21	3.08	1.89	2.94	3.08	2.94
MHM BONE	3.43	3.52	3.27	3.31	–	3.47	3.49	3.21	3.42	3.28	2.44	3.28	3.28	3.2
HOSMNG BONE	3.41	3.24	2.38	3	3.01	–	3.01	2.33	3.29	3.18	2.21	3.39	3.14	2.05
MDAMB231 BREAST	3.29	3.34	2.93	3.27	2.4	3.13	3.03	2.81	3.09	3.08	1.44	3.25	2.95	2.91
SYO1 SYNOVIAL	3.32	3.01	2.71	3.18	2.1	3.06	2.25	2.44	2.48	3.02	1.7	3.06	3.01	2.43
T47D BREAST	3.62	3.44	3.51	3.49	2.34	3.6	3.24	3.15	3.11	3.49	3.08	3.36	3.54	3.43
HSSYII SYNOVIAL	3.22	2.99	2.85	3.23	1.85	3.17	2.44	2.49	2.67	3	2.17	3.02	3.04	2.59
MFM223 BREAST	3.88	2.95	3.69	4.05	2.82	3.79	2.94	2.92	2.99	3.27	2.52	3.58	3.24	3.08
HCC78 LUNG	3.32	3.62	2.26	2.97	1.64	3.05	3.18	2.08	3.38	2.51	1.88	2.67	2.69	1.78
HT1080 SOFT TISSUE	3.37	3.53	3.28	3.41	2.52	3.4	3.02	3.25	2.92	3.22	2.37	3.3	2.94	3.13
